{"source": "the NIST ThermoML archive (doi:10.1016/j.tca.2016.03.016)", "key": {"[1]": {"experiment": "Molar enthalpy of transition or fusion", "conditions": "DSC"}}, "note": "± gives the expanded uncertainty stated by the source.", "data": [{"smiles": "CC(C)(CO)CO", "note": "[2,2-dimethyl-1,3-propanediol]", "values": [{"measurement": "Molar enthalpy of transition or fusion", "setting": "[1]; Crystal 1", "result": "0.951 ± 0.0526", "unit": "kcal/mol"}, {"measurement": "Molar enthalpy of transition or fusion", "setting": "[1]; Crystal 2", "result": "2.65 ± 0.124", "unit": "kcal/mol"}, {"measurement": "Normal melting temperature", "setting": "Crystal 1, DTA", "result": "128.50 ± 1.1", "unit": "°C"}, {"measurement": "Triple point temperature", "setting": "Crystal 2, DSC", "result": "314.95 ± 1.2", "unit": "K"}]}]}
